Patent publication US9320736B2, “Zinc chelating agents for depleting XIAP and sensitizing tumor cells to apoptosis” (Institute for Cancer Research, priority 2012, dated 2016)
“Also recorded” adds a separate entry of the source.

Columns and labels:
XIAP [1] = experiment: XIAP depletion in PC-3 cells by Western blot / immunoblotting; assay type: cell-based, human; conditions: for XIAP depletion (Western blot): chelator 50 μM, 4 hours, FIG. 3/4; for depletion of XIAP compared with TPEN: prostate cancer cells
Protocol: PC-3 cells were cultured in medium alone, or in the presence of PPIX (50 μM) for 4 hours, or 5-Ala (250 μM) for 24 hours. Expression of XIAP and GAPDH (control) was detected by immunoblotting with an antibody to XIAP or GADPH, respectively.
Cell Lines and Culture Conditions. A PC-3 castration-resistant prostate cancer cell line was obtained from the American Type and Culture Collection (Rockville, Md.). PC-3 cells were maintained in complete cell culture medium (RPMI 1640 medium (Bio-Whittaker, Walkersville, Md.) supplemented with 10% FCS (Hyclone, Logan, Utah), gentamicin (50 mg/L), sodium pyruvate (1 mM) and non-essential amino acids (0.1 mM)).
Analysis of XIAP Depletion in PC-3 Cell Line Following Administration of Heterocyclic Zn Chelators. PC-3 cells were cultured under three distinct conditions; medium alone, with administration of TPEN (8 μM) as a positive control for 2 hours, and with administration of an individual Zn chelators (MR) (50 μM) for 4 hours.
Western blot analysis was performed to assess for level of XIAP depletion. Whole cell lysates were prepared as described previously (Kolenko V et al. (1999) J. Immunol. 163: 590-8). Protein concentrations were measured with BCA protein assay reagents (Pierce, Rockford, Ill.). Equivalent amounts of proteins (20 μg) were mixed with an equal volume of 2× Laemmli sample buffer, boiled and resolved by electrophoresis in 10% sodium dodecyl sulfate-polyacrylamide gels (SDS-PAGE). The proteins were transferred from the gel to a nitrocellulose membrane using an electroblotting apparatus (Bio-Rad) (15 V, 3 mA/cm2 for 24 minutes).
Membranes were then incubated in a blocking solution containing 5% nonfat dry milk overnight to inhibit nonspecific binding. The membranes were then incubated with specific antibody (1-3 μg/ml) for 2 hours. After washing in TRIS/0.1% Tween 20 for 30 minutes, membranes were incubated for another 30 minutes with horseradish peroxidase-conjugated secondary antibody. The membranes were then washed and developed with enhanced chemiluminescence (ECL Western Blotting Kit, Amersham, Arlington Heights, Ill.).

PC-3 tumors = experiment: PC-3 tumor growth in ectopic xenograft mouse model of prostate cancer; assay type: in vivo; conditions: 5-Ala ip 10 mg/mouse daily combined with HGS-ETR1 iv 0.25 mg/mouse once a week, PC-3 tumors in male C.B17/Icr-scid mice, FIG. 2
Protocol: PC-3 tumors were established in male C.B17/Icr-scid mice. When tumor volumes reach approximately 200 mm^3, the animals were grouped (n=5 for each group) and treated with saline (control), an ip injection of 5-Ala (10 mg/mouse, daily) and/or an iv injection of HGS-ETR1 (0.25 mg/mouse once a week).

PC-3 cells = experiment: TRAIL-mediated apoptosis in PC-3 cells (DNA fragmentation assay); assay type: cell-based, human; conditions: chelator combined with TRAIL, FIG. 4
[2] = Intravenous tolerability in C.B17/Icr-scid mice; assay type: in vivo; conditions: two 6 week-old male C.B17/Icr-scid mice, iv 100 μl at 15 mM
Protocol: Animal Studies. Two 6 week-old male C.B17/Icr-scid mice were injected intravenously with 100 μl of MR13 chelator at final concentration of 15 mM.

XIAP mRNA = XIAP mRNA level in TPEN-treated cells; assay type: cell-based
Source text: (§1) The inhibition of XIAP expression is selective, as TPEN has no effect on the expression levels of other zinc-containing members of IAP family, i.e., cIAP1, cIAP2 and surviving. As well, the XIAP mRNA level is not reduced in TPEN-treated cells. Therefore, zinc chelation by TPEN induces depletion of XIAP specifically at the protein level. […] Importantly, the sensitization to therapeutic agents is specific to malignant but not to benign cells. This cytotoxic specificity for malignant cells is consistent with experiments showing that XIAP is preferentially degraded in malignant but not in benign cells upon zinc chelation and stems from blunted regulation of zinc uptake transporters upon carcinogenesis.

malignant cells = experiment: Potentiation of therapeutic agents by TPEN in malignant cells; assay type: cell-based; conditions: specific to malignant, not benign cells
Source text: as §1

[3] = tested on: cIAP1, cIAP2 and surviving; experiment: Expression of other zinc-containing IAP family members in TPEN-treated cells; assay type: cell-based
Source text: as §1

XIAP [4] = experiment: XIAP protein levels in xenograft animal model of human prostate cancer; assay type: in vivo
Source text: as §1

XIAP [5] = conditions: human prostate cancer cells; Makhov et al. 2008; cited from earlier work

NCC(=O)CCC(=O)O [5-Ala, 5-aminolevulinic acid, reference compound]
XIAP expression (immunoblot) (XIAP [1]; PC-3 cells, 5-Ala 250 μM, 24 hours, FIG. 1): reduces XIAP levels; also recorded: significantly reduced XIAP expression
tumor growth / antitumor effect (PC-3 tumors): augments HGS-ETR1 the antitumor effect
tumor growth / antitumor effect (PC-3 tumors; listed as 5-ALA): completely arrested tumor growth

O=S(=O)(Nc1cccc2cccnc12)c1ccc(F)c(Cl)c1 [MR13]
XIAP depletion (Western blot) (XIAP [1]; PC-3 cells): completely depleted XIAP
depletion of XIAP compared with TPEN (XIAP [1]): at least as effectively as TPEN
promotion of TRAIL-mediated cell death / apoptotic response (PC-3 cells): promoted TRAIL-mediated cell death
tolerability of intravenous administration [2]: well tolerated

N#Cc1ccc(S(=O)(=O)Nc2cccc3cccnc23)cc1 [MR44]
XIAP depletion (Western blot) (XIAP [1]; PC-3 cells): completely depleted XIAP
depletion of XIAP compared with TPEN (XIAP [1]): at least as effectively as TPEN
promotion of TRAIL-mediated cell death / apoptotic response (PC-3 cells): promoted TRAIL-mediated cell death

O=S(=O)(Nc1ccccc1-c1nc2ccccc2[nH]1)c1ccc(F)cc1 [MR66]
XIAP depletion (Western blot) (XIAP [1]; PC-3 cells): failed to induce XIAP depletion
promotion of TRAIL-mediated cell death / apoptotic response (PC-3 cells): did not succeeded in producing an apoptotic response

O=S(=O)(Nc1ccccc1-c1nc2ccccc2[nH]1)c1c(F)cccc1F [MR96]
XIAP depletion (Western blot) (XIAP [1]; PC-3 cells): failed to induce XIAP depletion
promotion of TRAIL-mediated cell death / apoptotic response (PC-3 cells): did not succeeded in producing an apoptotic response

c1ccc(CN(CCN(Cc2ccccn2)Cc2ccccn2)Cc2ccccn2)nc1 [TPEN, N,N,N′,N′-tetrakis(2-pyridylmethyl)-ethylenediamine]
XIAP mRNA level (XIAP mRNA): not reduced
potentiation of the action of HGS-ETR1 (mapatumumab) and docetaxel (malignant cells): markedly potentiated
effect on expression levels of other zinc-containing IAP family members [3]: no effect
XIAP protein levels in vivo (XIAP [4]): rapid decrease of XIAP protein levels
depletion of XIAP (XIAP [5]): selective and rapid depletion; also recorded: rapidly depletes XIAP
